Measurements published in paper PMC9508196 (Scientific Reports, 2022).
No end group written: not given here.

Tested on: Staphylococcus epidermidis ATCC 12,228
Assay type: cell-based
Settings: S. epidermidis ATCC 12,228; broth microdilution, MHB, 24 h, 37 °C, triplicate
In short: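 Lowest concentration preventing growth defined MIC (CLSI-based broth dilution, MHB, 2–8 × 10^5 CFU/mL); MBC was scored by colony-count plating of non-turbid wells, with absence of colonies marking the bactericidal level.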

RLFRRVKKVAGKIAKRIWK-NH2 [AP19]
MIC: 1.95 µg/mL
